Data from ChEMBL document CHEMBL1201862, “PubChem BioAssay data set” (2004).
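Grown in 96-well plates, cells were treated for 48 hours with each compound at five concentrations. Insufficient inhibition: endpoint recorded as highest concentration tested. GI50: concentration for 50% inhibition of growth.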 The source made the active and inactive calls. Cut-off read from the data, not from the text of the source: active = GI50 up to about 1.1 µM and inactive = higher.

Key:
Experiment in all cases: growth of human tumour cells (NCI), 48 h
786-0 = tested on: 786-0
A498 = tested on: A498
A549 = tested on: A549
ACHN = tested on: ACHN
BT-549 = tested on: BT-549
CAKI-1 = tested on: CAKI-1
CCRF-CEM = tested on: CCRF-CEM
COLO 205 = tested on: COLO 205
DU-145 = tested on: DU-145
EKVX = tested on: EKVX
HCT-116 = tested on: HCT-116
HCT-15 = tested on: HCT-15
HL-60 = tested on: HL-60
HOP-62 = tested on: HOP-62
HOP-92 = tested on: HOP-92
HT-29 = tested on: HT-29
Hs-578T = tested on: Hs-578T
IGROV-1 = tested on: IGROV-1
K562 = tested on: K562
KM12 = tested on: KM12
LOX IMVI = tested on: LOX IMVI
M14 = tested on: M14
MCF7 = tested on: MCF7
MDA-MB-231 = tested on: MDA-MB-231
MDA-MB-435 = tested on: MDA-MB-435
MDA-N = tested on: MDA-N
MOLT-4 = tested on: MOLT-4
Malme-3M = tested on: Malme-3M
NCI-H23 = tested on: NCI-H23
NCI-H460 = tested on: NCI-H460
NCI-H522 = tested on: NCI-H522
NCI/ADR-RES = tested on: NCI/ADR-RES
OVCAR-3 = tested on: OVCAR-3
OVCAR-5 = tested on: OVCAR-5
OVCAR-8 = tested on: OVCAR-8
PC-3 = tested on: PC-3
RPMI-8226 = tested on: RPMI-8226
RXF 393 = tested on: RXF 393
SF-268 = tested on: SF-268
SF-295 = tested on: SF-295
SF-539 = tested on: SF-539
SK-MEL-28 = tested on: SK-MEL-28
SK-MEL-2 = tested on: SK-MEL-2
SK-MEL-5 = tested on: SK-MEL-5
SK-OV-3 = tested on: SK-OV-3
SN12C = tested on: SN12C
SNB-19 = tested on: SNB-19
SNB-75 = tested on: SNB-75
SR = tested on: SR
SW-620 = tested on: SW-620
T47D = tested on: T47D
TK-10 = tested on: TK-10
U-251 = tested on: U-251
UACC-257 = tested on: UACC-257
UACC-62 = tested on: UACC-62
UO-31 = tested on: UO-31

SMILES: COc1cc(O)cc2oc(-c3ccc(O)cc3)cc(=O)c12
- GI50 (786-0): 68.4 µM (inactive)
- GI50 (A498): 29.6 µM (inactive)
- GI50 (A549): > 100 µM (inactive)
- GI50 (ACHN): 64.7 µM (inactive)
- GI50 (BT-549): 47.1 µM (inactive)
- GI50 (CAKI-1): 64.3 µM (inactive)
- GI50 (CCRF-CEM): > 100 µM (inactive)
- GI50 (COLO 205): > 100 µM (inactive)
- GI50 (DU-145): > 100 µM (inactive)
- GI50 (EKVX): > 100 µM (inactive)
- GI50 (HCT-116): 44.4 µM (inactive)
- GI50 (HCT-15): > 100 µM
- GI50 (HL-60): > 100 µM (inactive)
- GI50 (HOP-62): 74.6 µM (inactive)
- GI50 (HOP-92): 71.9 µM (inactive)
- GI50 (HT-29): > 100 µM (inactive)
- GI50 (Hs-578T): 57 µM (inactive)
- GI50 (IGROV-1): 47.3 µM (inactive)
- GI50 (K562): > 100 µM (inactive)
- GI50 (KM12): > 100 µM (inactive)
- GI50 (LOX IMVI): > 100 µM (inactive)
- GI50 (M14): > 100 µM (inactive)
- GI50 (MCF7): > 100 µM (inactive)
- GI50 (MDA-MB-231): > 100 µM (inactive)
- GI50 (MDA-MB-435): > 100 µM (inactive)
- GI50 (MDA-N): > 100 µM (inactive)
- GI50 (MOLT-4): > 100 µM (inactive)
- GI50 (Malme-3M): 76.6 µM (inactive)
- GI50 (NCI-H23): > 100 µM (inactive)
- GI50 (NCI-H460): 67.5 µM (inactive)
- GI50 (NCI-H522): 22.2 µM (inactive)
- GI50 (NCI/ADR-RES): > 100 µM (inactive)
- GI50 (OVCAR-3): > 100 µM (inactive)
- GI50 (OVCAR-5): > 100 µM (inactive)
- GI50 (OVCAR-8): 34.4 µM (inactive)
- GI50 (PC-3): > 100 µM (inactive)
- GI50 (RPMI-8226): 66.1 µM (inactive)
- GI50 (RXF 393): 32.7 µM (inactive)
- GI50 (SF-268): 67.8 µM (inactive)
- GI50 (SF-295): 36.2 µM (inactive)
- GI50 (SF-539): > 100 µM (inactive)
- GI50 (SK-MEL-28): > 100 µM (inactive)
- GI50 (SK-MEL-2): 52.8 µM (inactive)
- GI50 (SK-MEL-5): > 100 µM (inactive)
- GI50 (SK-OV-3): > 100 µM (inactive)
- GI50 (SN12C): > 100 µM (inactive)
- GI50 (SNB-19): > 100 µM (inactive)
- GI50 (SNB-75): 14 µM (inactive)
- GI50 (SR): 37.8 µM (inactive)
- GI50 (SW-620): 49.3 µM (inactive)
- GI50 (T47D): 50.4 µM (inactive)
- GI50 (TK-10): > 100 µM (inactive)
- GI50 (U-251): 71.4 µM (inactive)
- GI50 (UACC-257): > 100 µM (inactive)
- GI50 (UACC-62): 83.9 µM (inactive)
- GI50 (UO-31): 55 µM (inactive)
